Test results published in patent US20250213735A1, “NEUROPEPTIDE Y1 RECEPTOR (NPY1R) TARGETED THERAPEUTICS AND USES THEREOF” (Radionetics Oncology, Inc., priority 2023, published 2025).
Numbered stars: 1 amine (or outer) side, 2 acyl side, 3 side chain; on linkers, the order of the positions; unused ones are H or OH. Square brackets hold non-standard residues; d marks the D form. Peptide text beside a SMILES is read from it. * marks the point of attachment. dArg(Nω-CONH(CH2)2NHCOEt) = CCC(=O)NCCNC(=O)/N=C(/N)NCCC[C@@H](N)C(=O)O; DOTA = O=C(O)CN1CCN(CC(=O)O)CCN(CC(=O)*)CCN(CC(=O)O)CC1; X2 = O=C([C@H](c1cccc(NCCCN[*:1])c1)N1Cc2ccccc2C1)[*:2]; NH(4-OH-benzyl) = Oc1ccc(CN*)cc1; Sar = CNCC(=O)O

target: hNPY1R (Homo sapiens (Human), UniProt P25929); assay: NPY1R binding assay (SK-N-MC membrane, [125I]-Peptide YY competition); settings: crude SK-N-MC membranes endogenously expressing NPY1R; [125I]-Peptide YY (human) 0.05 nM; 120 min at room temperature; read-out: hNPY1R binding Ki;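 note: bound radioligand separated by filtration over GF/C filter plates and counted, Ki obtained by non-linear regression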
Sequence (P25929 whole entry): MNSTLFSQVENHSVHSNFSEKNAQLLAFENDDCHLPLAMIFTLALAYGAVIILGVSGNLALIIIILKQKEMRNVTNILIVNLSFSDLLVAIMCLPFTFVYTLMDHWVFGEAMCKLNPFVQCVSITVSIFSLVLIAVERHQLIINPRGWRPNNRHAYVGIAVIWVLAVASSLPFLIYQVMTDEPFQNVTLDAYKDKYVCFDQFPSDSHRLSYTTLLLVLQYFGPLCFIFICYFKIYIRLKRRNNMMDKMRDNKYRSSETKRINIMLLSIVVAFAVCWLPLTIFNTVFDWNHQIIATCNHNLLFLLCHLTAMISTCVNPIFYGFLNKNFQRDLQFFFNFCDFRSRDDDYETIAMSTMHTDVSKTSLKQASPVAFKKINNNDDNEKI

Row | SMILES | Ki [nM]
1 | CCC(=O)NCCNC(=O)/N=C(/N)NCCC[C@@H](NC(=O)[C@H](c1cccc(NCCCNC(=O)CCCCCNC(=O)NCCONC(=O)CN2CCN(CC(=O)O)CCN(CC(=O)O)CCN(CC(=O)O)CC2)c1)N1Cc2ccccc2C1)C(=O)NCc1ccc(O)cc1 [compound 27, 2,2′,2″-(10-(19-((3-((1S,4R,Z)-9-amino-4-((4-hydroxybenzyl)carbamoyl)-1-(isoindolin-2-yl)-2,11,16-trioxo-3,8,10,12,15-pentaazaoctadec-9-en-1-yl)phenyl)amino)-2,8,15-trioxo-4-oxa-3,7,9,16-tetraazanonadecyl)-1,4,7,10-tetraazacyclododecane-1,4,7-triyl)triacetic acid] | < 10
2 | CCC(=O)NCCNC(=O)/N=C(/N)NCCC[C@@H](NC(=O)[C@H](c1cccc(NCCCNC(=O)CN(C)C(=O)CN(C)C(=O)CN(C)C(=O)CN2CCN(CC(=O)O)CCN(CC(=O)O)CCN(CC(=O)O)CC2)c1)N1Cc2ccccc2C1)C(=O)NCc1ccc(O)cc1 [compound 21, 2,2′,2″-(10-(15-((3-((1S,4R,Z)-9-amino-4-((4-hydroxybenzyl)carbamoyl)-1-(isoindolin-2-yl)-2,11,16-trioxo-3,8,10,12,15-pentaazaoctadec-9-en-1-yl)phenyl)amino)-3,6,9-trimethyl-2,5,8,11-tetraoxo-3,6,9,12-tetraazapentadecyl)-1,4,7,10-tetraazacyclododecane-1,4,7-triyl)triacetic acid] ({DOTA}-[Sar][Sar][Sar][X2][dArg(Nω-CONH(CH2)2NHCOEt)]-{NH(4-OH-benzyl)}) | < 10
3 | CCC(=O)NCCNC(=O)/N=C(/N)NCCC[C@@H](NC(=O)[C@@H](c1ccccc1)N1Cc2ccccc2C1)C(=O)NCc1ccc(O)cc1 [60B, (R)—N-(4-hydroxybenzyl)-2-((R)-2-(isoindolin-2-yl)-2-phenylacetamido)-5-((Z)-2-((2-propionamidoethyl)carbamoyl)guanidino)pentanamide] | 10 to 100
4 | CCC(=O)NCCNC(=O)/N=C(/N)NCCC[C@@H](NC(=O)[C@H](c1cccc(NCCCNC(=O)CCCCCNC(=O)CN2CCN(CC(=O)O)CCN(CC(=O)O)CCN(CC(=O)O)CC2)c1)N1Cc2ccccc2C1)C(=O)NCc1ccc(O)cc1 [compound 19, 2,2′,2″-(10-(2-((6-((3-((3-((1S,4R,Z)-9-amino-4-((4-hydroxybenzyl)carbamoyl)-1-(isoindolin-2-yl)-2,11,16-trioxo-3,8,10,12,15-pentaazaoctadec-9-en-1-yl)phenyl)amino)propyl)amino)-6-oxohexyl)amino)-2-oxoethyl)-1,4,7,10-tetraazacyclododecane-1,4,7-triyl)triacetic acid] | < 10
5 | CCC(=O)NCCNC(=O)/N=C(/N)NCCC[C@@H](NC(=O)[C@H](c1ccc(OCCCNC(=O)CCCCCNC(=O)CN2CCN(CC(=O)O)CCN(CC(=O)O)CCN(CC(=O)O)CC2)cc1)N1Cc2ccccc2C1)C(=O)NCc1c(F)cc(O)cc1F [compound 36, 2,2′,2″-(10-(2-((6-((3-(4-((1S,4R,Z)-9-amino-4-((2,6-difluoro-4-hydroxybenzyl)carbamoyl)-1-(isoindolin-2-yl)-2,11,16-trioxo-3,8,10,12,15-pentaazaoctadec-9-en-1-yl)phenoxy)propyl)amino)-6-oxohexyl)amino)-2-oxoethyl)-1,4,7,10-tetraazacyclododecane-1,4,7-triyl)triacetic acid] | < 10
6 | CCCC1CCN([C@H](C(=O)N[C@H](CCCNC(=N)N)C(=O)NCc2ccc(O)cc2)c2ccccc2)CC1 [compound 78, (R)-5-guanidino-N-(4-hydroxybenzyl)-2-((S)-2-phenyl-2-(4-propylpiperidin-1-yl)acetamido)pentanamide] | 100 to 1000
7 | CCNC(=O)/N=C(/N)NCCC[C@@H](NC(=O)[C@H](c1cccc(NCCCN)c1)N1Cc2ccccc2C1)C(=O)NCc1c(F)cc(O)cc1F [66A, (R)-2-((S)-2-(3-((3-aminopropyl)amino)phenyl)-2-(isoindolin-2-yl)acetamido)-N-(2,6-difluoro-4-hydroxybenzyl)-5-((Z)-2-(ethylcarbamoyl)guanidino)pentanamide] | < 10
8 | CCC(=O)NCCNC(=O)/N=C(/N)NCCC[C@@H](NC(=O)[C@H](c1cccc(NCCCNC(=O)C[C@H](O)C[C@H](O)CCNC(=O)CN2CCN(CC(=O)O)CCN(CC(=O)O)CCN(CC(=O)O)CC2)c1)N1Cc2ccccc2C1)C(=O)NCc1ccc(O)cc1 [compound 29, 2,2′,2″-(10-(2-(((3R,5R)-7-((3-((3-((1S,4R,Z)-9-amino-4-((4-hydroxybenzyl)carbamoyl)-1-(isoindolin-2-yl)-2,11,16-trioxo-3,8,10,12,15-pentaazaoctadec-9-en-1-yl)phenyl)amino)propyl)amino)-3,5-dihydroxy-7-oxoheptyl)amino)-2-oxoethyl)-1,4,7,10-tetraazacyclododecane-1,4,7-triyl)triacetic acid] | < 10
9 | CCC(=O)NCCNC(=O)/N=C(/N)NCCC[C@@H](NC(=O)[C@H](c1cccc(NCCCN)c1)N1Cc2ccccc2C1)C(=O)NCc1ccc(O)cc1 [compound 63, (R)-2-((S)-2-(3-((3-aminopropyl)amino)phenyl)-2-(isoindolin-2-yl)acetamido)-N-(4-hydroxybenzyl)-5-((Z)-2-((2-propionamidoethyl)carbamoyl)guanidino)pentanamide] | < 10
10 | CCC(=O)NCCNC(=O)/N=C(/N)NCCC[C@@H](NC(=O)[C@H](c1cccc(NCCCNC(=O)CCC(=O)NCCNC(=O)CN2CCN(CC(=O)O)CCN(CC(=O)O)CCN(CC(=O)O)CC2)c1)N1Cc2ccccc2C1)C(=O)NCc1ccc(O)cc1 [compound 26, 2,2′,2″-(10-(2-((2-(4-((3-((3-((1S,4R,Z)-9-amino-4-((4-hydroxybenzyl)carbamoyl)-1-(isoindolin-2-yl)-2,11,16-trioxo-3,8,10,12,15-pentaazaoctadec-9-en-1-yl)phenyl)amino)propyl)amino)-4-oxobutanamido)ethyl)amino)-2-oxoethyl)-1,4,7,10-tetraazacyclododecane-1,4,7-triyl)triacetic acid] | < 10
11 | CCC(=O)NCCNC(=O)/N=C(/N)NCCC[C@@H](NC(=O)[C@H](c1ccc(OCCCNC(=O)CCOCCNC(=O)CN2CCN(CC(=O)O)CCN(CC(=O)O)CCN(CC(=O)O)CC2)cc1)N1Cc2ccccc2C1)C(=O)NCc1ccc(O)cc1 [compound 15, 2,2′,2″-(10-(2-((2-(3-((3-(4-((1S,4R,Z)-9-amino-4-((4-hydroxybenzyl)carbamoyl)-1-(isoindolin-2-yl)-2,11,16-trioxo-3,8,10,12,15-pentaazaoctadec-9-en-1-yl)phenoxy)propyl)amino)-3-oxopropoxy)ethyl)amino)-2-oxoethyl)-1,4,7,10-tetraazacyclododecane-1,4,7-triyl)triacetic acid] | < 10
12 | N=C(N)NCCC[C@@H](NC(=O)C(c1ccccc1)N1CCC2(CC1)CC(F)(F)C2)C(=O)NCc1ccc(O)cc1 (stereo partly drawn) [compound 90, (2R)-2-(2-(2,2-difluoro-7-azaspiro[3.5]nonan-7-yl)-2-phenylacetamido)-5-guanidino-N-(4-hydroxybenzyl)pentanamide] | 100 to 1000
13 | CCC(=O)NCCNC(=O)/N=C(/N)NCCC[C@@H](NC(=O)[C@H](c1ccccc1)N1Cc2ccccc2C1)C(=O)NCc1ccc(O)cc1 [60A, (R)—N-(4-hydroxybenzyl)-2-((S)-2-(isoindolin-2-yl)-2-phenylacetamido)-5-((Z)-2-((2-propionamidoethyl)carbamoyl)guanidino)pentanamide] | < 10
